The target of this assay is T1, CETP (Homo sapiens, UniProt P11597).
T1 construct: The donor lipoprotein obtained above was added to plasma of healthy subject; from tissue; host or cells: whole plasma of healthy subject
T1 sequence (P11597 18-493): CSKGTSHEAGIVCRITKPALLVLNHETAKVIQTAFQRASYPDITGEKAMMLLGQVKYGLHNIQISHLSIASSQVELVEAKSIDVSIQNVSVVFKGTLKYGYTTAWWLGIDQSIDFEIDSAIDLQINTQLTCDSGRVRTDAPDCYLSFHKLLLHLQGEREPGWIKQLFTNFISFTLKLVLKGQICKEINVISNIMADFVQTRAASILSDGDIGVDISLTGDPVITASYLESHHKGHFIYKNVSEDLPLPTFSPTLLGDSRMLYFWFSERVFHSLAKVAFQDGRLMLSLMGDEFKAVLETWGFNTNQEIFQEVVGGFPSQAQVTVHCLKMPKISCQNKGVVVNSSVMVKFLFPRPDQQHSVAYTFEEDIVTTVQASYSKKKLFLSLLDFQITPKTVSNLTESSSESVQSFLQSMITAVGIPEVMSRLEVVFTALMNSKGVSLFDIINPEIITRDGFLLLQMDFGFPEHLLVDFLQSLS
As to the kind of experiment: Inhibitory effect in vitro on CETP activity in total plasma. The conditions noted are these: plasma of healthy subject with [3H]CE-HDL3, 37° C., 4 hr; average values. Format: biochemical. The protocol: Potassium bromide (KBr) was added to plasma (40 mL) of healthy subject and the mixture was adjusted to have a specific density d=1.125 g/mL. The mixture was subjected to density gradient centrifugation (227,000×g, 4° C., 17 hr) and a fraction showing a specific density of d>1.125 g/mL (HDL3 fraction) was harvested. The obtained fraction was dialyzed against PBS solution [10 mmol/L Na2HPO4; 10 mmol/L NaH2PO4; 0.15 mol/L NaCl; […] (pH 7.4)]. Then, tritium-labeled cholesterol (37 MBq) was dissolved in 95% ethanol, gradually added to the above-mentioned HDL3 fraction with stirring and incubated at 37° C. for 18 hr. [By this operation, tritium-labeled cholesterol was esterified by the action of lecithin acyl transferase (LCAT) present on the HDL3 surface and taken up into HDL3 as tritium-labeled cholesteryl ester ([^3H]CE)]. After incubation, KBr was added, the mixture was adjusted to have a specific density d=1.21 g/mL, subjected to density gradient centrifugation (227,000×g, 4° C., 17 hr) and a fraction of specific density […] was harvested. The obtained fraction was dialyzed against the aforementioned PBS solution to give HDL3 incorporating [^3H]CE ([^3H]CE-HDL3, specific density: 1.125<d<1.21, specific activity: 10,000 dpm/μL), which was used as a donor lipoprotein.
The donor lipoprotein obtained above was added to plasma of healthy subject to prepare a [^3H]CE-HDL3-containing plasma (1,000 dpm/μL). The compound was dissolved in dimethyl formamide. A solution of the compound or a solvent alone (2 μL) and the [^3H]CE-HDL3-containing plasma (100 μL) were added into a microtube, and this was incubated at 37° C. or 4° C. for 4 hr. After ice-cooling, TBS solution [100 μL, 20 mmol/L Tris; 0.15 mol/L NaCl (pH 7.4)] containing 1 mol/L magnesium chloride and 2% dextran sulfate was added to each microtube and the mixture was thoroughly stirred. After keeping at 4° C. for 30 min, the mixture was centrifuged (10,000×g, 4° C., 10 min), and the radioactivity in the obtained supernatant (HDL fraction) was measured with a scintillation counter. […] The concentration of the compound necessary for inhibiting the CETP activity by 50% was calculated as an IC50 value.

pIC50: −log10 of the molar value. Counter-ions that a name gives are not always drawn.

One may read the pIC50 as −log10 of the IC50, conventionally taken in molar units. As for `CCN(C[C@H]1CC[C@H](C(=O)O)CC1)c1cc2c(cc1CN(Cc1cc(C#N)cc(C(F)(F)F)c1)c1ccn(C)n1)CCCC2` [Example 45, trans-4-{[N-(3-{[N′-(3-cyano-5-trifluoromethylbenzyl)-N′-(1-methyl-1H-pyrazol-3-yl)amino]methyl}-5,6,7,8-tetrahydronaphthalen-2-yl)-N-ethylamino]methyl}cyclohexanecarboxylic acid hydrochloride], the pIC50 is 6.31.

Turning to `CCN(CC1CCCC1)c1cc2c(cc1CN(Cc1cc(C(F)(F)F)cc(C(F)(F)F)c1)c1noc(C)n1)CCC2` [Example 46, N-[3,5-bis(trifluoromethyl)benzyl]-N-[6-(N′-cyclopentylmethyl-N′-ethylamino)indan-5-ylmethyl]-(5-methyl-[1,2,4]oxadiazol-3-yl)amine hydrochloride], the pIC50 is 6.41. To `CCN(C[C@H]1CC[C@H](C(=O)O)CC1)c1cc2c(cc1CN(Cc1cc(C(F)(F)F)cc(C(F)(F)F)c1)c1nnn(C)n1)CCC2` [Example 51, trans-4-{[N-(6-{[N′-[3,5-bis(trifluoromethyl)benzyl]-N′-(2-methyl-2H-tetrazol-5-yl)amino]methyl}indan-5-yl)-N-ethylamino]methyl}cyclohexanecarboxylic acid hydrochloride] belongs 6.39. The value for `CCN(C[C@H]1CC[C@H](C(=O)O)CC1)c1cc2c(cc1CN(Cc1cc(C#N)cc(C(F)(F)F)c1)c1nnn(C)n1)CCC2` [Example 52, trans-4-{[N-(6-{[N′-(3-cyano-5-trifluoromethylbenzyl)-N′-(2-methyl-2H-tetrazol-5-yl)amino]methyl}indan-5-yl)-N-ethylamino]methyl}cyclohexanecarboxylic acid hydrochloride] was 6.43. The value for `CCN(C[C@H]1CC[C@H](C(=O)O)CC1)c1cc2c(cc1CN(Cc1cc(C(F)(F)F)cc(C(F)(F)F)c1)c1cc(C)no1)CCC2` [Example 53, trans-4-{[N-(6-{[N′-[3,5-bis(trifluoromethyl)benzyl]-N′-(3-methylisoxazol-5-yl)amino]methyl}indan-5-yl)-N-ethylamino]methyl}cyclohexanecarboxylic acid hydrochloride] was 6.15; that for `CCN(CCCCC(=O)OC)c1cc2c(cc1CN(Cc1cc(C#N)cc(C(F)(F)F)c1)c1ccn(C)n1)CCC2` [Example 55, methyl 5-[N-(6-{[N′-(3-cyano-5-trifluoromethylbenzyl)-N′-(1-methyl-1H-pyrazol-3-yl)amino]methyl}indan-5-yl)-N-ethylamino]pentanoate hydrochloride] was 6.11. As to `CCN(CCCCC(=O)O)c1cc2c(cc1CN(Cc1cc(C(F)(F)F)cc(C(F)(F)F)c1)c1ncn(C)n1)CCC2` [Example 58, 5-[N-(6-{[N′-[3,5-bis(trifluoromethyl)benzyl]-N′-(1-methyl-1H-[1,2,4]triazol-3-yl)amino]methyl}indan-5-yl)-N-ethylamino]pentanoic acid hydrochloride], the pIC50 was 6.15.

`CCN(C[C@H]1CC[C@H](C(=O)O)CC1)c1cc2c(cc1CN(Cc1cc(C(F)(F)F)cc(C(F)(F)F)c1)c1ncn(C)n1)CCC2` [Example 59, trans-4-{[N-(6-{[N′-[3,5-bis(trifluoromethyl)benzyl]-N′-(1-methyl-1H-[1,2,4]triazol-3-yl)amino]methyl}indan-5-yl)-N-ethylamino]methyl}cyclohexanecarboxylic acid hydrochloride]: the pIC50 was 6.37. The value for `CCN(C[C@H]1CC[C@H](C(=O)O)CC1)c1cc2c(cc1CN(Cc1cc(C#N)cc(C(F)(F)F)c1)c1ncn(C)n1)CCC2` [Example 60, trans-4-{[N-(6-{[N′-(3-cyano-5-trifluoromethylbenzyl)-N′-(1-methyl-1H-[1,2,4]triazol-3-yl)amino]methyl}indan-5-yl)-N-ethylamino]methyl}cyclohexanecarboxylic acid] was 6.11; that for `CCN(CCCCC(=O)OC)c1cc2c(cc1CN(Cc1cc(C(F)(F)F)cc(C(F)(F)F)c1)c1ccn(C)n1)CCCC2` [Example 63, methyl 5-[N-(3-{[N′-[3,5-bis(trifluoromethyl)benzyl]-N′-(1-methyl-1H-pyrazol-3-yl)amino]methyl}-5,6,7,8-tetrahydronaphthalen-2-yl)-N-ethylamino]pentanoate hydrochloride] was 6.19. For `CCN(CCCCC(=O)OC)c1cc2c(cc1CN(Cc1cc(C#N)cc(C(F)(F)F)c1)c1ccn(C)n1)CCCC2` [Example 64, methyl 5-[N-(3-{[N′-(3-cyano-5-trifluoromethylbenzyl)-N′-(1-methyl-1H-pyrazol-3-yl)amino]methyl}-5,6,7,8-tetrahydronaphthalen-2-yl)-N-ethylamino]pentanoate hydrochloride], the pIC50 is 6.12. The value for `CCN(CCCCC(=O)O)c1cc2c(cc1CN(Cc1cc(C(F)(F)F)cc(C(F)(F)F)c1)c1ccn(C)n1)CCCC2` [Example 65, 5-[N-(3-{[N′-[3,5-bis(trifluoromethyl)benzyl]-N′-(1-methyl-1H-pyrazol-3-yl)amino]methyl}-5,6,7,8-tetrahydronaphthalen-2-yl)-N-ethylamino]pentanoic acid hydrochloride] was 6.54; that for `CCN(CCCCC(=O)O)c1cc2c(cc1CN(Cc1cc(C#N)cc(C(F)(F)F)c1)c1ccn(C)n1)CCCC2` [Example 66, 5-[N-(3-{[N′-(3-cyano-5-trifluoromethylbenzyl)-N′-(1-methyl-1H-pyrazol-3-yl)amino]methyl}-5,6,7,8-tetrahydronaphthalen-2-yl)-N-ethylamino]pentanoic acid hydrochloride] was 6.06. Compound `CCN(C[C@H]1CC[C@H](C(=O)O)CC1)c1cc2c(cc1CN(Cc1cc(C(F)(F)F)cc(C(F)(F)F)c1)c1nnn(C)n1)CCCC2` [Example 67, trans-4-{[N-(3-{[N′-[3,5-bis(trifluoromethyl)benzyl]-N′-(2-methyl-2H-tetrazol-5-yl)amino]methyl}-5,6,7,8-tetrahydronaphthalen-2-yl)-N-ethylamino]methyl}cyclohexanecarboxylic acid hydrochloride] gave a pIC50 of 6.59.

Regarding `CCN(C[C@H]1CC[C@H](C(=O)O)CC1)c1cc2c(cc1CN(Cc1cc(C#N)cc(C(F)(F)F)c1)c1nnn(C)n1)CCCC2` [Example 68, trans-4-{[N-(3-{[N′-(3-cyano-5-trifluoromethylbenzyl)-N′-(2-methyl-2H-tetrazol-5-yl)amino]methyl}-5,6,7,8-tetrahydronaphthalen-2-yl)-N-ethylamino]methyl}cyclohexanecarboxylic acid hydrochloride], the pIC50 was 6.55. To `CCN(C[C@H]1CC[C@H](C(=O)O)CC1)c1cc2c(cc1CN(Cc1cc(C(F)(F)F)cc(C(F)(F)F)c1)c1ncn(C)n1)CCCC2` [Example 69, trans-4-{[N-(3-{[N′-[3,5-bis(trifluoromethyl)benzyl]-N′-(1-methyl-1H-[1,2,4]triazol-3-yl)amino]methyl}-5,6,7,8-tetrahydronaphthalen-2-yl)-N-ethylamino]methyl}cyclohexanecarboxylic acid hydrochloride] belongs 6.47.

Regarding `CCN(C[C@H]1CC[C@H](C(=O)O)CC1)c1cc2c(cc1CN(Cc1cc(C#N)cc(C(F)(F)F)c1)c1ncn(C)n1)CCCC2` [Example 70, trans-4-{[N-(3-{[N′-(3-cyano-5-trifluoromethylbenzyl)-N′-(1-methyl-1H-[1,2,4]triazol-3-yl)amino]methyl}-5,6,7,8-tetrahydronaphthalen-2-yl)-N-ethylamino]methyl}cyclohexanecarboxylic acid], the pIC50 is 6.27.

(Values after US7807701B2, “Dibenzylamine compounds and pharmaceutical use thereof” (Japan Tobacco Inc., priority 2002, dated 2010).)
